Source: patent US7514421B2, “Use of an IBAT inhibitor for the treatment of constipation” (Albireo AB, priority 2003, dated 2009)

Tested on: constipated dog
Test: Buenos dog model for constipation (low fibre/high protein diet, 20 g meat/kg dog/day)
Assay type: in vivo
Details: constipated dogs
Excerpt: As stated hereinbefore the compounds defined in the present invention are useful in the treatment of functional constipation and C-IBS. These properties may be assessed, for example, using models known in the art: • Buenos dog model for constipation, (Hepato-gasteroenterology, 1980, 27, 381-389).
Once constipation has been induced the animals can be dosed with an IBAT inhibitor to asses the ability of the IBAT inhibitor to relieve the constipation.
The following data was generated using the Buenos dog model (method described in the publication above) with the modification that the dogs were given 20 g meat/kg dog/day. The result is calculated as mean value of the increase of faeces during the three treatment days subtracted with the entry value (day before start of treatment with the IBAT inhibitor). The dogs were judge as constipation if there faeces amount per day was below 30 gram.

SMILES	Result: mean increase of faeces during the three treatment days subtracted with the entry value (dose 5 μmol/kg, 3 animals) [g/day]	Result: mean increase of faeces during the three treatment days subtracted with the entry value (dose 5 μmol/kg, 3 animals, listed as compound 1) [g/day]	Result: mean increase of faeces during the three treatment days subtracted with the entry value (dose 1.5 μmol/kg, 2 animals) [g/day]	Result: mean increase of faeces during the three treatment days subtracted with the entry value (dose 1.5 μmol/kg, 2 animals, listed as compound 2) [g/day]	Result: mean increase of faeces during the three treatment days subtracted with the entry value (dose 1.5 μmol/kg, 2 animals, listed as compound 3) [g/day]
CCCCC1(CCCC)CN(c2ccccc2)c2cc(SC)c(OCC(=O)N[C@@H](C(=O)NCCS(=O)(=O)O)c3ccc(O)cc3)cc2S(=O)(=O)N1 [Compound 1, 1,1-Dioxo-3,3-dibutyl-5-phenyl-7-methylthio-8-(N-{(R)-α-[N-(2-sulphoethyl)carbamoyl]-4-hydroxybenzyl}carbamoylmethoxy)-2,3,4,5-tetrahydro-1,2,5-benzothiadiazepine]	38 ± 7	38 ± 7			
CCCCC1(CCCC)CN(c2ccccc2)c2cc(SC)c(OCC(=O)N[C@@H](C(=O)N[C@H](C(=O)O)[C@@H](C)O)c3ccc(O)cc3)cc2S(=O)(=O)N1 [Compound 2, 1,1-Dioxo-3,3-dibutyl-5-phenyl-7-methylthio-8-(N-{(R)-α-[N-((S)-1-carboxy-2-(R)-hydroxypropyl)carbamoyl]-4-hydroxybenzyl}carbamoylmethoxy)-2,3,4,5-tetrahydro-1,2,5-benzothiadiazepine]			23 ± 11	23 ± 11	
CCCCC1(CCCC)CN(c2ccccc2)c2cc(SC)c(OCC(=O)N[C@@H](C(=O)N[C@H](C(=O)O)C(C)C)c3ccc(O)cc3)cc2S(=O)(=O)N1 [Compound 3, 1,1-Dioxo-3,3-dibutyl-5-phenyl-7-methylthio-8-(N-{(R)-α-[N-((S)-1-carboxy-2-methylpropyl)carbamoyl]-4-hydroxybenzyl}carbamoylmethoxy)-2,3,4,5-tetrahydro-1,2,5-benzothiadiazepine]			39 ± 2		39 ± 2
